Measurements published in patent US20090137517A1, “SENSITIZING A CELL TO CANCER TREATMENT BY MODULATING THE ACTIVITY OF A NUCLEIC ACID ENCODING RPS27L PROTEIN” (Agency for Science, Technology and Research, priority 2006, published 2009).

How the values were obtained:
Assay type in all cases: cell-based, human
HCT116 cells [1] = test: JC-1 staining, mitochondrial membrane potential by flow cytometry; conditions: RPS27L shRNA HCT116 cells, ADR treatment
Experimental: To further define the nature of this cell death response the inventors used another assay, namely flow cytometric detection of cells stained with JC-1. The JC-1-staining identifies cell death events as a result of loss of mitochondria membrane potential (ΔΨm).
(§1) Cells cycle analysis was performed by DNA content quantification. The cells were fixed with 70% ethanol and stained with propidium iodide (50 μg/ml) staining. The stained cells were analyzed by FACScalibur (BD Bioscience). For the BrdU incorporation assay and mitochondrial membrane potential detection, the BrdU Flow Kit and JC-1 staining kit (both from BD Bioscience) were used, respectively, following the instruction manual. Stained cells were analyzed by FACScalibur (BD Bioscience) and quantified by using CellQuest software (BD Bioscience).

HCT116 cells [2] = test: Cell cycle and apoptosis analysis by flow cytometry (sub-G1 DNA content)
Experimental: as §1

p53 and p21 = test: Western blot of p53 and p21 protein levels in HCT116 cells; conditions: ADR (1 μM), 5-FU (375 μM), nutlin-3 (10 μM)
Experimental: (§2) To investigate whether the p53-induced increase in RPS27L mRNA also gives rise to the increased protein levels, immunoblot analysis of p53 wild-type and p53 null HCT116 cells treated with ADR, 5-FU or nutlin-3, a small molecule MDM2 antagonist that directly activates p53 (Vassilev, L. T., Vu, B. T., et al. (2004) “In vivo activation of the p53 pathway by small-molecule antagonists of MDM2” Science, vol. 303, p. 844-848) was performed. […] To extend this observations to other cell lines and to other p53 stimuli, U2OS (human osteosarcoma cell line) and SH-SY5Y (human neuroblastoma cell line) cells (p53 wild type) as well as Saos-2 cells (human osteosarcoma cell line, p53-deficient) were treated with ADR, etoposide phosphate (VP16®) and 5-FU (FIG. 2B). […] Obviously, 5-FU treatment activates a posttranslational mechanism that causes RPS27L protein downregulation in spite of the increased mRNA expression.
(§3) Cells were harvested and lysed with RIPA buffer (50 mM Tris-HCl, pH7.4, 1 mM EDTA, 150 mM NaCl, 1% Nonidet P-40, 0.5% sodium deoxycholate and proteinase inhibitors). The lysates were clarified by centrifugation at 16,000×g for 15 minutes at 4° C. Protein concentrations were determined with the Bradford Protein Assay Kit (Bio-Rad). 20-50 μg protein samples were separated by SDS-PAGE, transferred onto an Immobilon membrane (Millipore) and blotted with antibodies. Anti-p53 and anti-p21 antibodies were from Santa Cruz; anti-MDM2 and anti-Puma antibodies were from Merck. The rabbit polyconal antibody to RPS27L was raised against a 14 amino acid peptide from human RPS27L (SEQ ID NO: 2: LHPSLEEEKKKHKK).

RPS27L protein [3] = test: Western blot of RPS27L protein levels in HCT116 cells; conditions: ADR (1 μM), 5-FU (375 μM), nutlin-3 (10 μM)
Experimental: as §2, §3

RPS27 = test: Specificity of RPS27L siRNA, RT-PCR of RPS27; conditions: HCT116 cells transfected with siRNA, then VP16 (10 μM)
Experimental: (§4) The siRNA oligo targeting RPS27L (SEQ ID NO: 1: ggttgctacaagattacta was purchased from Proligo, and transfection was conducted using Lipofectamine 2000 (Invitrogen) according to the manufacturer's information. To generate stable knock-down cell lines, the siRNA sequences were cloned into the pSIREN-RetroQ retroviral expression vector (BD Bioscience) according to the manufacturer's instruction. Virally infected cells were selected in a medium containing 2 μg/ml puromycin and individual drug-resistant clones were collected, pooled and expanded.
(§5) All RT-PCR was performed using the Titanium One Step RT-PCR Kit (BD Clontech).

RPS27L = RPS27L gene silencing by RNA interference, RT-PCR; conditions: HCT116 cells transfected with siRNA, then VP16 (10 μM)
Experimental: as §4, §5

HCT116 cells [4] = test: γ-H2AX focus formation, immunofluorescence and confocal microscopy
Experimental: A deficient DNA damage checkpoint is expected to increase DNA damage. γ-H2AX foci are considered to be sensitive indicators of double strand breaks (DSB). We looked for γ-H2AX focus formation after etoposide phosphate (VP16®) treatment and monitored the reversibility post-VP16 washout.
The cells were seeded in 4-well or 8-well culture slides. After treatment, cells were fixed with 3.7% paraformaldehyde in PBS and permeabilized with 0.2% Triton-X100. Cells were sequentially incubated with primary antibodies (see above under “Protein Analysis and Generation of Anti-RPS27L Antibody”) and Alexa Fluor 488 or Alexa Fluor 546-conjugated secondary antibodies (Invitrogen) for 1 hour each and mounted in Fluorsave (Merck) mounting medium. DRAQ5 (Biostats, UK) was diluted in mounting medium for nuclear staining. The stained cells were examined by Zeiss LSM510 confocal microscopy.

RPS27L protein [5] = test: Western blot of RPS27L protein in U2OS, SH-SY5Y and Saos-2 cells; conditions: U2OS and SH-SY5Y (p53 wild type), Saos-2 (p53-deficient); VP16 (10 μM), ADR (1 μM), 5-FU (375 μM)
Experimental: as §2, §3

RPS27L mRNA = test: RT-PCR of RPS27L mRNA after drug treatment of HCT116 cells; conditions: p53 wild-type HCT116 cells; ADR (1 μM) or 5-FU (375 μM); not in p53 null cells
Source text: FIG. 1A depicts the microarray analysis showing a set of genes whose expression was induced by the DNA damaging agents adriamycin (ADR) and 5-fluorouracil (5-FU) in p53 wild-type HCT116 cells (human colorectal carcinoma cell line containing wild type p53) but not in the p53 null counterpart. In both treatments, RPS27L, together with bona fide p53 targets such as cdkn1a (encodes p21), Pmaid (encodes Noxa) and ccd3 (encodes Puma), was unregulated in a p53-dependent manner. To validate the microarray data, RT-PCR analysis was performed (FIG. 1B).
The human colon carcinoma cell line HCT116 and its p53 knock-out derivate cells were kindly provided by Dr. Bert Vogelstein. HCT116 cells can also be purchased under the ATCC number: CCL 247. The human osteosarcoma cell lines U2OS and Saos-2 can be purchased under the following ATCC numbers: U2OS, ATCC HTB-96; Saos-2, ATCC HTB-85 and SH-SY5Y, ATCC CRL-2266. Cells were grown in DMEM supplemented with 10% fetal bovine serum and penicillin-streptomycin (Invitrogen). Adriamycin, etoposide phosphate (VP16®) and 5-fluorouracil were purchased from Sigma-Aldrich.
as §5

RPS27L shRNA: short hairpin of SEQ ID NO: 1 to deplete RPS27L, stably expressed in HCT116 from pSIREN-RetroQ retroviral vector (guide GGTTGCTACAAGATTACTA)
percentage of cells with lower membrane potential (ΔΨm) (HCT116 cells [1]): 33.5% | cell death (sub-G1 DNA content) (HCT116 cells [2]; p53 wild-type HCT116 stably expressing RPS27L shRNA, ADR (1 μM) 48 h): marked cell death

COc1ccc(C2=N[C@@H](c3ccc(Cl)cc3)[C@@H](c3ccc(Cl)cc3)N2C(=O)N2CCNC(=O)C2)c(OC(C)C)c1 [nutlin-3]
p53 and p21 protein (p53 and p21): accumulation of p53 and p21 | RPS27L protein level (RPS27L protein [3]): increased RPS27L protein levels

RPS27L siRNA: siRNA oligo targeting RPS27L, SEQ ID NO: 1: ggttgctacaagattacta, purchased from Proligo (GGTTGCTACAAGATTACTA; listed as DNA, chemistry not given here)
effect on closely-related RPS27 (mRNA) (RPS27): no effect | cell death (sub-G1 DNA content) (HCT116 cells [2]; HCT116 cells, transient siRNA transfection, then ADR (1 μM) 24 h): marked increase in cell death | cell death (sub-G1 DNA content) (HCT116 cells [2]; HCT116 cells, transient siRNA transfection, then etoposide phosphate (VP16) (10 μM) 24 h): marked increase in cell death | cell death (sub-G1 DNA content) (HCT116 cells [2]; p53 null HCT116 cells, transient siRNA transfection, then ADR or VP16): not in p53 null counterparts | RPS27L expression (mRNA) (RPS27L): nearly completely ablated

COc1cc([C@@H]2c3cc4c(cc3[C@@H](O[C@@H]3O[C@@H]5CO[C@@H](C)O[C@H]5[C@H](O)[C@H]3O)[C@H]3COC(=O)[C@H]23)OCO4)cc(OC)c1OP(=O)(O)O [etoposide phosphate (VP16®), etoposide phosphate]
DSB foci (γ-H2AX staining) after treatment (HCT116 cells [4]; HCT116 cells, VP16 (20 μM)): prominent DSB foci | γ-H2AX staining after VP16 removal (HCT116 cells [4]; RPS27L-depleted HCT116 cells, after VP16 removal): sustained γ-H2AX staining | γ-H2AX staining after VP16 removal (HCT116 cells [4]; control HCT116 cells, by 16 hours after VP16 removal): almost undetectable | RPS27L protein level (RPS27L protein [5]): p53-dependent upregulation of RPS27L protein

O=c1[nH]cc(F)c(=O)[nH]1 [5-FU, 5-fluorouracil]
p53 and p21 protein (p53 and p21): increased p21 protein expression | RPS27L mRNA (RPS27L mRNA): induced | RPS27L protein level (RPS27L protein [3]): downregulated | RPS27L protein level (RPS27L protein [5]): downregulation | cell cycle and apoptosis response (HCT116 cells [2]; HCT116 p53+/+ and p53−/−, ADR (1 μM) or 5-FU (375 μM) for 48 h): p53-dependent apoptosis
